# Experimental data taken from US20070081951A1, “Prevention of dental plaque and dental calculus in animals” (priority 2005, published 2007).
# Tests used:
# [1] = test system: Actinomyces viscosus (AV); assay: Zones of inhibition of growth on TSA agar plates, Actinomyces viscosus (AV); type: cell-based; conditions: for Zones of Inhibition of Growth, AV: 20 ul specimen on TSA agar lawn, 37° C., 5% CO2, read at 24 and 48 h, CPC 0.05%, CHX 0.1%, acids 1% (wt. %)
# Protocol: (§1) This study was conducted to determine whether anti-calculus agents inhibit the antimicrobial activity of cetyl pyridium chloride […] and chlorhexidine (CHX).
# (§2) Experimental Design: TSA agar plates were individually swabbed with fresh 24 h broth cultures of Streptococcus mutans (TH16), Streptococcus parasanguis (FW213) and Actinomyces viscosus (AV) to provide a confluent lawn of bacterial growth. Five minutes after swabbing the plates (to allow the inoculum to absorb into the agar), 20 ul of each test specimen (see below) was placed onto designated places on the plates and allowed to absorb into the agar. The plates were incubated agar-side up at 37° C. in 5% CO2 for 48 h. Plates were examined at 24 and 48 h for zones of inhibition of growth for each bacterial species. The diameter of each zone was measured in mm. The zones of inhibition of each mixture (anti-calculus and antimicrobial agents) were compared to the zones of each agent separately. If the zones of the mixtures were the same size (or larger) than the inhibition zones from the antimicrobial agent alone then there was no inhibition of antimicrobial activity by the anti-calculus agent.
# (§3) Test Specimens: There were 12 different samples/test specimens used in this experiment. Test groups included (concentrations are wt. %): cetyl pyridium chloride ([…]; commercially available from ICN Biomedicals, Inc., Aurora, Ohio) at a concentration of 0.05%; CPC at 0.05%+1.0% malic acid; CPC at 0.05%+1% fumaric acid; CPC at 0.05%+1% citric acid; chlorhexidine (CHX; commercially available ICN Biomedicals, Inc., Aurora, Ohio) at 0.1% alone; CHX at 0.1%+1% malic acid; CHX at 0.1%+1% fumaric acid; CHX at 0.1%+1% citric acid; 1% malic acid; 1% fumaric acid; 1% citric acid.
# (§4) Results: See Table 1 (below). This study was designed to determine whether or not the polycarboxylic acids (anti-calculus agents) altered the activity of the anti-microbial agents. Decreases in the width of the zone of inhibition when the polycarboxylic acid is combined with the antimicrobial agent, as compared to the width of the zone of inhibition for the antimicrobial agent alone, is an indication that the polycarboxylic acid reduced the activity of the anti-microbial agent. Differences in the width of the zone of inhibition of ±3 mm are not considered to be significant.
# [2] = test system: Streptococcus mutans (TH16); assay: Zones of inhibition of growth on TSA agar plates, Streptococcus mutans (TH16); type: cell-based; conditions: for Zones of Inhibition of Growth, TH16: 20 ul specimen on TSA agar lawn, 37° C., 5% CO2, read at 24 and 48 h, CPC 0.05%, CHX 0.1%, acids 1% (wt. %)
# Protocol: as §1, §2, §3, §4
# [3] = test system: Streptococcus parasanguis (FW213); assay: Zones of inhibition of growth on TSA agar plates, Streptococcus parasanguis (FW213); type: cell-based; conditions: for Zones of Inhibition of Growth, FW213: 20 ul specimen on TSA agar lawn, 37° C., 5% CO2, read at 24 and 48 h, CPC 0.05%, CHX 0.1%, acids 1% (wt. %)
# Protocol: as §1, §2, §3, §4
# [4] = test system: dental plaque in cats; assay: Example 3: antimicrobial rinses in cats, 4-week dental plaque formation; type: in vivo; conditions: 4-week test periods, clinical plaque grading
# Protocol: The presence of dental plaque was assessed clinically by disclosing the plaque with an aqueous solution containing 1.5% D&C Red #28, removing the excess disclosant by spraying with tap water, and then determining the amount of plaque present on the occlusal and gingival halves of the buccal surface of each tooth using the following numerical scale: 0=no observable plaque; 1=scattered plaque covering <24% of the tooth surface; 2=plaque covering between 25 and 49% of the tooth surface; 3=plaque covering between 50 and 74% of the tooth surface; and 4=plaque covering 75% or more of the tooth surface. The plaque intensity or thickness was assessed for each area using the following subjective numerical scale: 1=light or thin layer of plaque; 2=moderate thickness of about 1 mm; and 3=heavy or thick layer of plaque in excess of 1 mm in thickness. The results of the assessments were summarized for each animal by multiplying the plaque coverage score by the intensity factor for each occlusal and gingival segment of each tooth, summing the scores for the occlusal and gingival segments to obtain an individual tooth score, and summing the individual tooth scores and dividing by the number of teeth graded.
# The treatments were applied as rinses with 4-week test periods using the same procedures as described for Example 2. The amount of plaque present at the conclusion of the test period was graded clinically using the numerical scale described previously.
# [5] = zone of mixture vs antimicrobial agent alone, differences of ±3 mm not significant
SMILES,"Zones of Inhibition of Growth, AV [1]","Zones of Inhibition of Growth, TH16 [2]","Zones of Inhibition of Growth, FW213 [3]","Change of antimicrobial activity on combining with the polycarboxylic acids, A. viscosus [1, 5]","Change of antimicrobial activity on combining with the polycarboxylic acids, S. mutans [2, 5]","Change of antimicrobial activity on combining with the polycarboxylic acids, S. parasanguis [3, 5]",Reduction in the formation of dental plaque [4]
"O=C(O)CC(O)(CC(=O)O)C(=O)O [C (citric acid), citric acid]",0 mm,Weak* (Weak = very slight activity; <1 mm),0 mm,–,–,–,–
"[H]/N=C(\N/C(=N/[H])NCCCCCCNC(=N)NC(=N)Nc1ccc(Cl)cc1)Nc1ccc(Cl)cc1 [CHX alone, chlorhexidine gluconate]",20 mm,6 mm,13 mm,decreased by the presence of fumaric acid,not altered,not altered,–
"O=C(O)/C=C/C(=O)O [F (fumaric acid), fumaric acid]",0 mm,Weak* (Weak = very slight activity; <1 mm),0 mm,–,–,–,–
"O=C(O)CC(O)C(=O)O (stereo not drawn) [M (malic acid), malic acid]",0 mm,Weak* (Weak = very slight activity; <1 mm),0 mm,–,–,–,–
Oc1cc(Cl)ccc1Oc1ccc(Cl)cc1Cl [Triclosan],–,–,–,–,–,–,14.8%
CCCCCCCC(=O)O [caprylic acid],–,–,–,–,–,–,10.2%
[F][Sn][F] [stannous fluoride],–,–,–,–,–,–,no reduction
